The values below come from US20080063660A1, “Method to reduce the physiologic effects of drugs on mammals” (Anarco, Inc., priority 1993, published 2008).

Structures can show the parent of a compound that is named as a salt.

The conditions of data set [1]: stated in brackets beside the i.v. challenge dose; cited from earlier work.
Another data set has as its system rabbits. As to the kind of experiment: intravenous cocaine-HCl challenge of rabbits immunized with COALB. The procedure:
Rabbits were immunized with COALB by subcutaneous injection of 100 μg of the benzoylecgonine-conjugated immunogen every two weeks for a period of two months (four injections). Freund's complete adjuvant was used in the first injection and Freund's incomplete adjuvant was utilized for subsequent injections.

The term LD50 denotes the dose at which mortality reaches 50%.

`COC(=O)[C@H]1[C@@H](OC(=O)c2ccccc2)C[C@@H]2CC[C@H]1N2C` [cocaine-HCl]: the LD50 in data set [1] was 12 mg/kg. Also, in the data set with rabbits (cocaine-HCl 2 mg/kg i.v. in sterile saline), the “physiologic/toxic effects of cocaine in control (un-immunized) rabbits” value is listed as “marked grande maul convulsions”. In the data set with rabbits (cocaine-HCl 2 mg/kg i.v., un-immunized rabbits), the “time to recovery of control rabbits after cocaine” value lay in the range of 10 to 15 min.
